Read-outs that look alike come from different tables or passages of the source. A value given as a limit tells only on which side of the number the result lay.

For ten compounds, IC50 and inhibition results are on record in patent publication US20240025907A1, “QUINAZOLINE PAN-KRas INHIBITORS” (Mirati Therapeutics, Inc., priority 2022, published 2024).

Assay type in all cases: cell-based
In experiment [1] the test system is KRas-mediated Phosphorylation of ERK in AsPC-1 cells. Put plainly: Cisbio HTRF pERK assay, AsPC-1 cells. The following applies: for IC50: 3 hrs compound, read-out: Inhibition (HTRF IC50 nM) of KRas-mediated Phosphorylation of ERK, AsPC-1. A general note: In TR-FRET formats the signal depends on donor and acceptor labels being close together.
For experiment [2], the system named is KRas-mediated Phosphorylation of ERK in H727 cells. Description: Cisbio HTRF pERK assay, H727 cells. The settings on record: for IC50: 3 hrs compound, read-out: Inhibition (HTRF IC50 nM) of KRas-mediated Phosphorylation of ERK, H727.
Experiment [3] concerns KRas-mediated Phosphorylation of ERK in HCT116 cells. Put plainly: Cisbio HTRF pERK assay, HCT116 cells. The following applies: for IC50: HCT116 cells, 3 hrs compound, read-out: Inhibition (HTRF IC50 nM) of KRas-mediated Phosphorylation of ERK, HCT116.
For experiment [4], the system named is KRas-mediated Phosphorylation of ERK in A549 cells. Put plainly: Cisbio HTRF pERK assay, A549 cells. The following applies: for IC50: A549 cells, 3 hrs compound, read-out: Inhibition (HTRF IC50 nM) of KRas-mediated Phosphorylation of ERK, A549.
The test system of experiment [5] is KRas-mediated Phosphorylation of ERK in H460 cells. Put plainly: Cisbio HTRF pERK assay, H460 cells. The following applies: for IC50: H460 cells, 3 hrs compound, read-out: Inhibition (HTRF IC50 nM) of KRas-mediated Phosphorylation of ERK, H460.
Experiment [6] concerns KRas-mediated Phosphorylation of ERK in H358 cells. Put plainly: Cisbio HTRF pERK assay, H358 cells. The settings on record: for IC50: H358 cells, 3 hrs compound, read-out: Inhibition (HTRF IC50 nM) of KRas-mediated Phosphorylation of ERK, H358.
Experiment [7] deals with KRas-mediated Phosphorylation of ERK in PSN1 cells. Put plainly: Cisbio HTRF pERK assay, PSN1 cells. The settings on record: 3 hour compound, read-out: Inhibition (HTRF IC50 nM) of KRas-mediated Phosphorylation of ERK, PSN1. The protocol:
Inhibition of KRas Phosphorylation of ERK (HTRF) by Exemplary Compounds of Formula (I) • Cisbio HTRF Advanced pERK Assay Catalog #64AERPEH • Cell: MKN1, PSN1 • Procedure: • Day 1: Seed 6,000 cells/well −25 μl/well in 384-well white solid bottom plate; RPM1_10% FBS.

Turning to `N#Cc1c(N)sc2c(F)ccc(-c3c(Cl)cc4c(NCc5cn[nH]c5)nc(OC[C@@]56CCCN5C[C@H](F)C6)nc4c3F)c12` [Example 199, 4-(4-(((1H-pyrazol-4-yl)methyl)amino)-6-chloro-8-fluoro-2-(((2R,7aS)-2-fluorotetrahydro-1H-pyrrolizin-7a(5H)-yl)methoxy)quinazolin-7-yl)-2-amino-7-fluorobenzo[b]thiophene-3-carbonitrile], the IC50 in experiment [1] (Homo sapiens, ASPC1, 3 h) worked out at 4200 nM; in experiment [2] (Homo sapiens, NCI-H727, 3 h) it was 4090 nM; in experiment [3] (Homo sapiens, HCT-116, 3 h), 889 nM; in experiment [4] (Homo sapiens, A549, 3 h) it was 1180 nM; in experiment [5] (Homo sapiens, NCI-H460, 3 h), 462 nM; in experiment [6] (Homo sapiens, NCI-H358, 3 h), 232 nM. Besides, in experiment [7] (Homo sapiens, PSN1, 3 h), the concentration for half-maximal inhibition (IC50) was 3860 nM.
In the case of `CN(C)C(=O)n1cc2c(n1)CCCN(c1nc(OC[C@@]34CCCN3C[C@H](F)C4)nc3c(F)c(-c4ccc(F)c5sc(N)c(C#N)c45)c(Cl)cc13)C2` (atropisomer, axis not shown; (aS)) [Example 186, 5-((S)-7-(2-amino-3-cyano-7-fluorobenzo[b]thiophen-4-yl)-6-chloro-8-fluoro-2-(((2R,7aS)-2-fluorotetrahydro-1H-pyrrolizin-7a(5H)-yl)methoxy)quinazolin-4-yl)-N,N-dimethyl-5,6,7,8-tetrahydropyrazolo[4,3-c]azepine-2(4H)-carboxamide], the IC50 in experiment [1] is 162 nM; in experiment [2], 202 nM; in experiment [3], 670 nM; in experiment [4], 382 nM; in experiment [5] it was 341 nM; in experiment [6], 98 nM. The IC50 in experiment [7] was more than 10000 nM.
On to `C=C1CN2CCC[C@@]2(COc2nc(N3CC4CCC(C3)N4)c3cc(Cl)c(-c4ccc(F)c5sc(N)c(C#N)c45)c(F)c3n2)C1` [Example 184, (R)-4-(4-((1R,5S)-3,8-diazabicyclo[3.2.1]octan-3-yl)-6-chloro-8-fluoro-2-(((S)-2-methylenetetrahydro-1H-pyrrolizin-7a(5H)-yl)methoxy)quinazolin-7-yl)-2-amino-7-fluorobenzo[b]thiophene-3-carbonitrile], for which the IC50 in experiment [1] is 1 nM; in experiment [2], 610 nM; in experiment [3], 39 nM; in experiment [4], 160 nM; in experiment [5], 82 nM; in experiment [6] it was 40 nM. Further, in experiment [7], the IC50 came to 701 nM.
For the compound `CN(C)C(=O)c1cc2n(n1)CCCN(c1nc(OC[C@@]34CCCN3C/C(=C\F)C4)nc3c(F)c(-c4ccc(F)c5sc(N)c(C#N)c45)c(Cl)cc13)C2` (atropisomer, axis not shown) [Example 195, 5-((R)-7-(2-amino-3-cyano-7-fluorobenzo[b]thiophen-4-yl)-6-chloro-8-fluoro-2-(((S,Z)-2-(fluoromethylene)tetrahydro-1H-pyrrolizin-7a(5H)-yl)methoxy)quinazolin-4-yl)-N,N-dimethyl-5,6,7,8-tetrahydro-4H-pyrazolo[1,5-a][1,4]diazepine-2-carboxamide], the IC50 in experiment [2] came out at 2 nM; in experiment [3], 6 nM; in experiment [4] it was 2 nM; in experiment [5], 2 nM; in experiment [6], 1 nM; in experiment [7] (Homo sapiens, PSN1, 3 h) it was 115 nM.
Regarding `N#Cc1c(N)sc2c(F)ccc(-c3c(Cl)cc4c(N5CCCn6nc(N)c(Cl)c6C5)nc(OC[C@@]56CCCN5C[C@H](F)C6)nc4c3F)c12` (atropisomer, axis not shown; (aS)) [Example 188, 2-amino-4-((R)-4-(2-amino-3-chloro-7,8-dihydro-4H-pyrazolo[1,5-a][1,4]diazepin-5(6H)-yl)-6-chloro-8-fluoro-2-(((2R,7aS)-2-fluorotetrahydro-1H-pyrrolizin-7a(5H)-yl)methoxy)quinazolin-7-yl)-7-fluorobenzo[b]thiophene-3-carbonitrile], the IC50 in experiment [1] worked out at 3 nM; in experiment [2], 10 nM; in experiment [3], 18 nM; in experiment [4], 14 nM; in experiment [5], 13 nM; in experiment [6] it was 2 nM. The IC50 in experiment [7] worked out at 544 nM.
Turning to `CN(C)C(=O)n1cc2c(n1)CCCN(c1nc(OC[C@@]34CCCN3C[C@H](F)C4)nc3c(F)c(-c4ccc(F)c5sc(N)c(C#N)c45)c(Cl)cc13)C2` [Example 185, 5-((R)-7-(2-amino-3-cyano-7-fluorobenzo[b]thiophen-4-yl)-6-chloro-8-fluoro-2-(((2R,7aS)-2-fluorotetrahydro-1H-pyrrolizin-7a(5H)-yl)methoxy)quinazolin-4-yl)-N,N-dimethyl-5,6,7,8-tetrahydropyrazolo[4,3-c]azepine-2(4H)-carboxamide], the IC50 was 2 nM in experiment [1]; 3 nM in experiment [2]; 17 nM in experiment [3]; 12 nM in experiment [4]; 9 nM in experiment [5]; 1 nM in experiment [6]. For the same compound, the IC50 in experiment [7] is 1800 nM.
For `N#Cc1c(N)sc2c(F)ccc(-c3c(Cl)cc4c(NCCO)nc(OC[C@@]56CCCN5C[C@H](F)C6)nc4c3F)c12` [Example 205, 2-amino-4-(6-chloro-8-fluoro-2-(((2R,7aS)-2-fluorotetrahydro-1H-pyrrolizin-7a(5H)-yl)methoxy)-4-((2-hydroxyethyl)amino)quinazolin-7-yl)-7-fluorobenzo[b]thiophene-3-carbonitrile], the IC50 in experiment [1] (Homo sapiens, ASPC1, 3 h) is 1740 nM; in experiment [2] (Homo sapiens, NCI-H727, 3 h) it was 554 nM; in experiment [3] (Homo sapiens, HCT-116, 3 h), 985 nM; in experiment [4] (Homo sapiens, A549, 3 h) it was 574 nM; in experiment [5] (Homo sapiens, NCI-H460, 3 h), 690 nM; in experiment [6] (Homo sapiens, NCI-H358, 3 h), 71 nM. The IC50 in experiment [7] (Homo sapiens, PSN1, 3 h) is 7120 nM.
Regarding `N#Cc1c(N)sc2c(F)ccc(-c3c(Cl)cc4c(N5C=C(CCO)CCCC5)nc(OC[C@@]56CCCN5C[C@H](F)C6)nc4c3F)c12` [Example 190, 2-amino-4-(6-chloro-8-fluoro-2-(((2R,7aS)-2-fluorotetrahydro-1H-pyrrolizin-7a(5H)-yl)methoxy)-4-(6-(2-hydroxyethyl)-2,3,4,5-tetrahydro-1H-azepin-1-yl)quinazolin-7-yl)-7-fluorobenzo[b]thiophene-3-carbonitrile], the IC50 in experiment [1] (Homo sapiens, ASPC1, 3 h) came to 627 nM; in experiment [2] (Homo sapiens, NCI-H727, 3 h), 870 nM; in experiment [3] (Homo sapiens, HCT-116, 3 h), 596 nM; in experiment [4] (Homo sapiens, A549, 3 h), 525 nM; in experiment [5] (Homo sapiens, NCI-H460, 3 h) it was 347 nM; in experiment [6] (Homo sapiens, NCI-H358, 3 h), 330 nM. Moreover, the IC50 in experiment [7] (Homo sapiens, PSN1, 3 h) was determined as 5570 nM.
As to `N#Cc1c(N)sc2c(F)ccc(-c3c(Cl)cc4c(N5C[C@@H]6C(=O)NC(=O)[C@@H]6C5)nc(OC[C@@]56CCCN5C[C@H](F)C6)nc4c3F)c12` [Example 200, 2-amino-4-(6-chloro-4-((3aR,6aS)-4,6-dioxohexahydropyrrolo[3,4-c]pyrrol-2(1H)-yl)-8-fluoro-2-(((2R,7aS)-2-fluorotetrahydro-1H-pyrrolizin-7a(5H)-yl)methoxy)quinazolin-7-yl)-7-fluorobenzo[b]thiophene-3-carbonitrile], the IC50 was 2740 nM in experiment [1] (Homo sapiens, ASPC1, 3 h); 4730 nM in experiment [2] (Homo sapiens, NCI-H727, 3 h); 4560 nM in experiment [3] (Homo sapiens, HCT-116, 3 h); more than 10000 nM in experiment [4] (Homo sapiens, A549, 3 h); 2760 nM in experiment [5] (Homo sapiens, NCI-H460, 3 h); 1680 nM in experiment [6] (Homo sapiens, NCI-H358, 3 h).
For `CCc1c(F)ccc2cc(O)cc(-c3ccc4c(N5CCCC6(CCO6)C5)nc(OC[C@@]56CCCN5C[C@H](F)C6)nc4c3F)c12` (stereo partly drawn) [Example 71, 5-ethyl-6-fluoro-4-(8-fluoro-2-(((2R,7aS)-2-fluorohexahydro-1H-pyrrolizin-7a-yl)methoxy)-4-(1-oxa-6-azaspiro[3.5]nonan-6-yl)quinazolin-7-yl)naphthalen-2-ol], the inhibition at 0.1 µM in experiment [1] (Homo sapiens, ASPC1, single point at 100 nM) came to 90%; in experiment [2] (Homo sapiens, NCI-H727, single point at 100 nM), 65%; in experiment [3] (Homo sapiens, HCT-116, HCT116 cells, single point at 100 nM), 38%; in experiment [4] (Homo sapiens, A549, A549 cells, single point at 100 nM) it was 82%; in experiment [5] (Homo sapiens, NCI-H460, H460 cells, single point at 100 nM) it was 87%; in experiment [6] (Homo sapiens, NCI-H358, H358 cells, single point at 100 nM), 94%.

Usually IC50 stands for the concentration that inhibits the measured activity by half. Usually inhibition stands for the share of the control response that was lost under treatment.
